Results published in patent US20100016335A1, “NOVEL AMINOPYRIDINE DERIVATIVES HAVING AURORA A SELECTIVE INHIBITORY ACTION” (priority 2006, published 2010).
Where a name gives a salt, the structure may show the parent alone.

Tests used:
[1] = molecular target: T1, GST-tagged human Aurora B(AurB)/His-tagged human INCENP complex proteins (Homo sapiens, UniProt Q96GD4); experiment: Aurora B inhibitory activity (Method A, IMAP assay kit); type: biochemical; settings: 40 μM ATP, 25° C., 45 minutes
T1 construct: GST; purchased Carna Biosciences, Inc
T1 sequence (Q96GD4 whole entry): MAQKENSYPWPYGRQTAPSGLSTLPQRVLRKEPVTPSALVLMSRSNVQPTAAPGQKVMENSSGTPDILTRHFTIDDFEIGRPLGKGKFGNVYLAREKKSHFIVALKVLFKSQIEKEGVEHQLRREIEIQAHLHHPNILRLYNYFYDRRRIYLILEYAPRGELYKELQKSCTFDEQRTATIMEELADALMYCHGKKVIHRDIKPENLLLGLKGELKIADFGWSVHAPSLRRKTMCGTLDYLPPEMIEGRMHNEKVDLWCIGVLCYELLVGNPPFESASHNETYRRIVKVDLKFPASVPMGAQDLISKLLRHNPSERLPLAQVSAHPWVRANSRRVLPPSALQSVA
T1 sequence (Q9NQS7 803-916 partner limits assumed): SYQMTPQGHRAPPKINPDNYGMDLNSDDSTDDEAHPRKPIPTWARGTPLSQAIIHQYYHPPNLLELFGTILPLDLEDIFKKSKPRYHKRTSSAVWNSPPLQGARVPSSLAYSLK
Protocol: An assay development kit for IMAP (registered trademark) (Aurora B), purchased from Carna Biosciences, Inc., was used for phosphorylation reaction, and the phosphorylation of a substrate was detected using the IMAP technology. […] Using the same, the phosphorylation reaction was conducted in accordance with a partially revised protocol attached to the kit, and then the phosphorylation of the substrate was detected using the IMAP technology.
For the phosphorylation reaction, 384 well plate was used, and the reaction volume was 10 μl/well. The composition of the reaction buffer (assay buffer) is comprised of 20 mM of HEPES buffer (pH 7.4), 0.01% Tween-20, and 2 mM of dithiothreitol (DTT). Thereto, AurB/INCENP complex protein, 100 nM of the substrate, and 40 μM of ATP, and 1 mM of magnesium salt were added, and then the reaction was conducted at 25° C. for 45 minutes. Thereafter, in order to terminate and detect the reaction, 30 μl of the IMAP (registered trademark) binding reagent (IMAP Progressive Binding Reagent, R7284) that had been diluted (1:400) in the 1× IMAP binding buffer A (IMAP Progressive Binding Buffer A, 5× stock, R7282) was added to each well.
(§1) The compound to be tested was added to the reaction system such that a dilution series of the compound in DMSO was prepared, and then 0.5 μL of this solution was added for the testing to each well. Each control well was provided by adding 0.5 μL of DMSO to the well in place of the DMSO solution containing the compound to be tested.

human Aurora A = molecular target: T2, human Aurora A (Homo sapiens, UniProt O14965); experiment: Aurora A inhibitory activity (IMAP fluorescence polarization phosphorylation assay); type: biochemical; settings: 20 μM ATP, 30° C., 120 minutes
T2 construct: His (N); made in house; host or cells: Escherichia coli BL21-CodonPlus(DE3)-RIL
T2 sequence (O14965 1-403): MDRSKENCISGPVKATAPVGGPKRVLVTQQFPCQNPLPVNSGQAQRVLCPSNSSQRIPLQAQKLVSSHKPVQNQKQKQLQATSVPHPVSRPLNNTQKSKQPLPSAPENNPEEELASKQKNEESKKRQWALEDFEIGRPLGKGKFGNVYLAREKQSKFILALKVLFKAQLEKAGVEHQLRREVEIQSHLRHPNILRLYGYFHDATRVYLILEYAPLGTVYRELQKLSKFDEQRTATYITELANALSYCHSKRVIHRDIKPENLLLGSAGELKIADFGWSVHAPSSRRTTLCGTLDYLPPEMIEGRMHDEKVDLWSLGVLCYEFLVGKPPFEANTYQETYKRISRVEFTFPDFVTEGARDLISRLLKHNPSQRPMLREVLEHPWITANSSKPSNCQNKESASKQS
From the text: cDNA of N-terminal His-tagged human Aurora A was integrated into an expression vector, which was then highly expressed in Escherichia coli BL21-CodonPlus(DE3)-RIL cells. The Escherichia coli was harvested and lysed, and then the His-tagged human Aurora A protein was applied onto a nickel chelate column and eluted from the column with imidazole. The active fractions were desalted with a desalting column to give a purified enzyme.
For the phosphorylation reaction, the method by Upstate, Inc. [Kinase Profiler™ Assay Protocols] was referred to, and phosphorylation of the substrate was detected using IMAP® technology (Molecular Devices, Co. Ltd.) (Gaudet E W. et. al, J. Biomol. Screen, 8, 164-175 (2003)). Concretely, the phosphorylation reaction and the detection were carried out as follows:
The phosphorylation reaction was conducted using 384 well plate, and the reaction volume was 10 μl/well. The reaction buffer is comprised of 50 mM Tris-chloride buffer (pH 7.4), 15 mM magnesium acetate, and 0.2 mM ethylenediamine-N,N,N′,N′-tetraacetic acid (EDTA). Thereto, the purified Aurora A protein, 100 nM of the peptide substrate, and 20 μM of adenosine 5′-triphosphate (ATP) were added, and then the reaction was carried out at 30° C. for 120 minutes.
Thereafter, in order to terminate and detect the reaction, 30 μl of the IMAP (registered trademark) binding reagent (IMAP Progressive Binding Reagent, R7284) that had been diluted (1:400) in the 1×IMAP binding buffer A (IMAP Progressive Binding Buffer A, 5× stock, R7282) was added to each well. The solution stood still for 60 minutes in the dark, and then fluorescence polarization was measured using a high-end microplate reader (excitation wavelength: 485 nm; emission wavelength: 520 nm).
as §1, with “in dimethylsulfoxide (DMSO)” for “in DMSO”

Compound	IC50 [1] [nM]	IC50 (human Aurora A) [nM]
O=C(O)[C@]1(Cc2cccc(Nc3cc[nH]n3)n2)CC[C@@H](Oc2cccc(Cl)c2F)CC1 [Example 10, trans-4-(3-chloro-2-fluorophenoxy)-1-((6-(1H-pyrazol-3-ylamino)pyridin-2-yl)methyl)cyclohexanecarboxylic acid trifluoroacetate]	200	0.15
N=c1[nH]nc([C@]2(Cc3cccc(Nc4cc[nH]n4)n3)CC[C@@H](Oc3cccc(C(F)(F)F)c3F)CC2)o1 [Example 21, 6-((trans-4-(2-fluoro-3-(trifluoromethyl)phenoxy)-1-(5-imino-4,5-dihydro-1,3,4-oxadiazol-2-yl)cyclohexyl)methyl)-N-1H-pyrazol-3-ylpyridin-2-amine trifluoroacetate]	> 1000	2.8
CNC(=O)[C@]1(Cc2cccc(Nc3cc[nH]n3)n2)CC[C@@H](Oc2cccc(Cl)c2F)CC1 [Example 12, trans-4-(3-chloro-2-fluorophenoxy)-N-methyl-1-((6-(1H-pyrazol-3-ylamino)pyridin-2-yl)methyl)cyclohexanecarboxamide]	> 1000	2.5
Fc1c(Cl)cccc1O[C@H]1CC[C@](Cc2cccc(Nc3cc[nH]n3)n2)(c2nn[nH]n2)CC1 [Example 17, 6-((trans-4-(3-chloro-2-fluorophenoxy)-1-(2H-tetrazol-5-yl)cyclohexyl)methyl)-N-1H-pyrazol-3-ylpyridin-2-amine trifluoroacetate]	350	0.45
O=C(O)[C@]1(Cc2cccc(Nc3nccs3)n2)CC[C@@H](Oc2cccc(Cl)c2)CC1 [Example 5, trans-4-(3-chlorophenoxy)-1-((6-(1,3-thiazol-2-ylamino)pyridin-2-yl)methyl)cyclohexanecarboxylic acid hydrochloride]	130	0.12
CC(=O)N[C@]1(Cc2cccc(Nc3nccs3)n2)CC[C@@H](Oc2cccc(Cl)c2F)CC1 [Example 19, N-(trans-4-(3-chloro-2-fluorophenoxy)-1-((6-(1,3-thiazol-2-ylamino)pyridin-2-yl)methyl)cyclohexyl)acetamide]	320	0.82
N#C[C@]1(Cc2cccc(Nc3cc[nH]n3)n2)CC[C@@H](Oc2cccc(Cl)c2F)CC1 [Example 16, trans-4-(3-chloro-2-fluorophenoxy)-1-((6-(1H-pyrazol-3-ylamino)pyridin-2-yl)methyl)cyclohexanecarbonitrile]	> 1000	1.6
O=C(O)[C@]1(Cc2cccc(Nc3nccs3)n2)CC[C@@H](Oc2cccc(C(F)(F)F)c2)CC1 [Example 7, trans-1-((6-(1,3-thiazol-2-ylamino)pyridin-2-yl)methyl)-4-(3-(trifluoromethyl)phenoxy)cyclohexanecarboxylic acid hydrochloride]	130	0.17
Fc1c(O[C@H]2CC[C@](Cc3cccc(Nc4cc[nH]n4)n3)(c3nnco3)CC2)cccc1C(F)(F)F [Example 22, 6-((trans-4-(2-fluoro-3-(trifluoromethyl)phenoxy)-1-(1,3,4-oxadiazol-2-yl)cyclohexyl)methyl)-N-1H-pyrazol-3-ylpyridin-2-amine]	> 1000	4.1
CN(C)C(=O)[C@]1(Cc2cccc(Nc3cc[nH]n3)n2)CC[C@@H](Oc2cccc(Cl)c2F)CC1 [Example 13, trans-4-(3-chloro-2-fluorophenoxy)-N,N-dimethyl-1-((6-(1H-pyrazol-3-ylamino)pyridin-2-yl)methyl)cyclohexanecarboxamide]	> 1000	1.3

Next, values leading:

IC50 [1] [nM]	IC50 (human Aurora A) [nM]	Compound
95	0.09	O=C(O)[C@]1(Cc2cc(Br)cc(Nc3nccs3)n2)CC[C@@H](Oc2cccc(Cl)c2F)CC1 [Example 40, trans-1-((4-bromo-6-(1,3-thiazol-2-ylamino)pyridin-2-yl)methyl)-4-(3-chloro-2-fluorophenoxy)cyclohexanecarboxylic acid hydrochloride]
710	3.5	Cc1nnc([C@]2(Cc3cccc(Nc4cc[nH]n4)n3)CC[C@@H](Oc3cccc(C(F)(F)F)c3F)CC2)s1 [Example 28, 6-((trans-4-(2-fluoro-3-(trifluoromethyl)phenoxy)-1-(5-methyl-1,3,4-thiadiazol-2-yl)cyclohexyl)methyl)-N-1H-pyrazol-3-ylpyridin-2-amine]
110	0.18	Cc1cc(Nc2cc[nH]n2)nc(C[C@]2(c3n[nH]c(=O)o3)CC[C@H](Oc3cccc(Cl)c3F)CC2)n1 [Example 41, 5-(trans-4-(3-chloro-2-fluorophenoxy)-1-((4-methyl-6-(1H-pyrazol-3-ylamino)pyrimidin-2-yl)methyl)cyclohexyl)-1,3,4-oxadiazol-2(3H)-one trifluoroacetate]
690	0.87	Cc1nnc([C@]2(Cc3cccc(Nc4cc[nH]n4)n3)CC[C@@H](Oc3cccc(Cl)c3F)CC2)o1 [Example 25, 6-((trans-4-(3-chloro-2-fluorophenoxy)-1-(5-methyl-1,3,4-oxadiazol-2-yl)cyclohexyl)methyl)-N-1H-pyrazol-3-ylpyridin-2-amine]
142	0.23	Fc1c(O[C@H]2CC[C@](Cc3cccc(Nc4cc[nH]n4)n3)(c3n[nH]c(=S)o3)CC2)cccc1C(F)(F)F [Example 42, 5-(trans-4-(2-fluoro-3-(trifluoromethyl)phenoxy)-1-((6-(1H-pyrazol-3-ylamino)pyridin-2-yl)methyl)cyclohexyl)-1,3,4-oxadiazole-2(3H)-thione trifluoroacetate]
